According to EP3995521A1, “BLOCKED POLYISOCYANATE COMPOSITION, HYDROPHILIC POLYISOCYANATE COMPOSITION, RESIN COMPOSITION, RESIN FILM AND LAMINATED BODY” (Asahi Kasei Kabushiki Kaisha, priority 2019, dated 2021):

Assay: Surface tension of dispersing agent at 25°C by Wilhelmy method (Physical property 1-5)
Type: physicochemical
Settings: aqueous solution of 0.1% by mass of the dispersing agent
Method: The surface tension may be determined by the following method, for example. An anionic dispersion agent is diluted with water to prepare an aqueous solution consisting of: 0.1% by mass of the anionic dispersion agent, relative to the total mass of the aqueous solution; and water. Then, the aqueous solution was used to measure the surface tension at 25°C by Wilhelmy method (which may be referred to as plate method or vertical plate method). Specifically, when a plate that is a measuring unit makes contact with the surface of the aqueous solution, the aqueous solution wets the plate upwards. At the time, the surface tension acts along the perimeter of the plate, and the force that pulls the plate into the aqueous solution generates. The pulling force F (force that acts on the plate, measuring force) is read, and the surface tension r is determined by the following formula. In the formula, L represents the perimeter (m) of the plate, and θ represents the contact angle of the plate and the aqueous solution. r = F/(L×cosθ) [formula]
The surface tension may be measured using a commercially available measurement device, such as static surface tension measurement system (manufactured by DKSH Japan, under the model number of TD 1C or TD 3).
Each dispersing agent used in the examples and comparative examples was diluted with water to prepare an aqueous solution of the dispersing agent consisting of: 0.1% by mass of the anionic dispersion agent, relative to the total mass of the aqueous solution; and water. Then, the resultant aqueous solution of the dispersing agent was used to measure the surface tension at 25°C by Wilhelmy method.

Molecule: Ammonium polyoxyethylene alkylether sulfate [Example D-6]
- surface tension at 25°C: 38.8 mN/m
- surface tension at 25°C (listed as compound (II-1)): 30.7 mN/m

Molecule: CCCCC(CC)COCCOCCOP(=O)([O-])O.[Na+] [Example D-4, Polyoxyalkylene alkylether phosphoric acid ester]
- surface tension at 25°C: 30.7 mN/m
